Reference: ChEMBL document CHEMBL1153474, “Novel tricyclic antagonists of the prostaglandin D2 receptor DP2 with efficacy in a murine model of allergic rhinitis” (Bioorg Med Chem Lett, 2009)
The source made the active and inactive calls. The calls are words filed in the database; no cut-off is given here.

Legend:
[1] = target: T1, Prostaglandin D2 receptor 2 (Homo sapiens, UniProt Q9Y5Y4); assay: Displacement of [3H]PGD2 from human prostaglandin D2 receptor
T1 sequence (Q9Y5Y4 whole entry): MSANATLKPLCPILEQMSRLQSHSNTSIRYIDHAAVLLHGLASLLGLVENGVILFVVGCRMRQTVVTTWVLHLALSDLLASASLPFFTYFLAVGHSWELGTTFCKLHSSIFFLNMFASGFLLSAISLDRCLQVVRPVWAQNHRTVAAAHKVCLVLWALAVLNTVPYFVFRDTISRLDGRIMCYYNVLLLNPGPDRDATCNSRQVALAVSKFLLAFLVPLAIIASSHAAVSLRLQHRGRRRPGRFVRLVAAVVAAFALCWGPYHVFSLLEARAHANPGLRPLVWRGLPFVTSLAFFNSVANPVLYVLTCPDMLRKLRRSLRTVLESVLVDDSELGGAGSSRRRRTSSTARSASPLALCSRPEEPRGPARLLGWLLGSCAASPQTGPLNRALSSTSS

Cytochrome P450 3A4 [2] = target: T2, Cytochrome P450 3A4 (Homo sapiens, UniProt P08684); assay: Inhibition of human CYP3A4; type: ADME
T2 sequence (P08684 whole entry): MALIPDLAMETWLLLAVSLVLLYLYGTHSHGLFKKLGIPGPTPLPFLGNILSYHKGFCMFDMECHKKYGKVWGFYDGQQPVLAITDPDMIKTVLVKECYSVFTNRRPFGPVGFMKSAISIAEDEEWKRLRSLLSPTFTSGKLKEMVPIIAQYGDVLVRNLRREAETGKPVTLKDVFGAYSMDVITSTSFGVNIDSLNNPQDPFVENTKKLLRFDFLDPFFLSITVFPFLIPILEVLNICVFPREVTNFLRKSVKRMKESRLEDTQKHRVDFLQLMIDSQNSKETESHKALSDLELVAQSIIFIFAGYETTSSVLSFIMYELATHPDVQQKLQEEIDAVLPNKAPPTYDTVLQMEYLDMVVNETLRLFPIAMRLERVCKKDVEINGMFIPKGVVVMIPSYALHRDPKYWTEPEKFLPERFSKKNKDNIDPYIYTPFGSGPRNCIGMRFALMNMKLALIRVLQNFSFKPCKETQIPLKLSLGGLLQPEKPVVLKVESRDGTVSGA

Prostacyclin receptor = Prostacyclin receptor (Homo sapiens, UniProt P43119); assay: Displacement of [3H]iloprost from human prostacyclin receptor expressed in human 293 cell membrane; type: cell membranes
Prostacyclin receptor, sequence (P43119 whole entry): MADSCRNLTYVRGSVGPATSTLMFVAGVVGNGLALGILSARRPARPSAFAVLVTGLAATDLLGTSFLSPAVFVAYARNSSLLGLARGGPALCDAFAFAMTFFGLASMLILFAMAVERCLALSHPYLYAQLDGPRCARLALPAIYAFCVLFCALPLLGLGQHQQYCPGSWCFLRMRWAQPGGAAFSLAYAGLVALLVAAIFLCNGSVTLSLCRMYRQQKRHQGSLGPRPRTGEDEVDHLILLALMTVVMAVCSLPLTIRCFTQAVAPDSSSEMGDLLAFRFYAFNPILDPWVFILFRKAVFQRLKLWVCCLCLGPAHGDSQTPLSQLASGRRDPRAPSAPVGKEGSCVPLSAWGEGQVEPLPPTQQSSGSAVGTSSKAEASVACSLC

Thromboxane A2 receptor = target: T3, Thromboxane A2 receptor (Homo sapiens, UniProt P21731); assay: Displacement of [3H]SQ-29548 from thromboxane receptor in human platelet membrane; type: cell membranes
T3 sequence (P21731 whole entry): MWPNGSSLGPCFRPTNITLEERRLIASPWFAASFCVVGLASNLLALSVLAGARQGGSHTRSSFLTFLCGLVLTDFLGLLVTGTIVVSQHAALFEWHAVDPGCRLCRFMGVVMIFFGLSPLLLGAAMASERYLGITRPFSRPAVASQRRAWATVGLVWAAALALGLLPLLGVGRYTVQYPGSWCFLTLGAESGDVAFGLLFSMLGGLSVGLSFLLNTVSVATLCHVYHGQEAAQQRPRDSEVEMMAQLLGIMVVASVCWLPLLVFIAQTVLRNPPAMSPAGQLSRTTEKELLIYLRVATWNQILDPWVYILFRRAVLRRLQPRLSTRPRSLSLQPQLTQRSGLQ

Cytochrome P450 3A4 [3] = target: T2, Cytochrome P450 3A4; assay: Induction of CYP3A4 activity in cryopreserved human hepatocytes at 10 uM using midazolam as substrate after 2 days relative to rifampicin; details: 48 h
Cytochrome P450 2D6 = Cytochrome P450 2D6 (Homo sapiens, UniProt P10635); assay: Inhibition of human CYP2D6; type: ADME
Cytochrome P450 2D6, sequence (P10635 whole entry): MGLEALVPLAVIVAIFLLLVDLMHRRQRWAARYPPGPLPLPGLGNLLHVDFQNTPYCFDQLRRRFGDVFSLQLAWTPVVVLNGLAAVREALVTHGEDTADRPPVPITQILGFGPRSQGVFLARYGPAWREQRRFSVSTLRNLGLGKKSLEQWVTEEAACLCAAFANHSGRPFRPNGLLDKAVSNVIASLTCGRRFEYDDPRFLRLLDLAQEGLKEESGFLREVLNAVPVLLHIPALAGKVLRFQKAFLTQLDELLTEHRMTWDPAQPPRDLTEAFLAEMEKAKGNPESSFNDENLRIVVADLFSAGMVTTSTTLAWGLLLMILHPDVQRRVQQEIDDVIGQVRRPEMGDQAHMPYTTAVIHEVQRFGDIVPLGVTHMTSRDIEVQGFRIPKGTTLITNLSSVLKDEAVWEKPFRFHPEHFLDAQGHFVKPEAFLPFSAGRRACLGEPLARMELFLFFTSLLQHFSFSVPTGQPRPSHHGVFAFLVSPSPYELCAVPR

Blood = assay: Inhibition of eosinophil […] in human whole blood assessed as change in morphology after 4 mins using flow cytometry by leukocyte shape change assay; type: functional, tissue-based
[4] = target: T4, Prostaglandin D2 receptor (Homo sapiens, UniProt Q13258); assay: Displacement of [3H]PGD2 from […] in human platelet membrane; type: cell membranes
T4 sequence (Q13258 whole entry): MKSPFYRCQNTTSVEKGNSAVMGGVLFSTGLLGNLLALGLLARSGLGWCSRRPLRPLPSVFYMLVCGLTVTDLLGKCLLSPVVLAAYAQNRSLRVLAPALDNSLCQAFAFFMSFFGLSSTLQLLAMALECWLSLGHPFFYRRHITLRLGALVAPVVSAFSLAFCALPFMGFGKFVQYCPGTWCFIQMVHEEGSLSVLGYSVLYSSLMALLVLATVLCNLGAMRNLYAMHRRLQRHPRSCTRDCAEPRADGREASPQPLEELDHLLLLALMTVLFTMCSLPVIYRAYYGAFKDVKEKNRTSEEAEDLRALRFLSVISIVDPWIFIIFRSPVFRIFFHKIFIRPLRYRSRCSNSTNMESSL

Cytochrome P450 2C9 = Cytochrome P450 2C9 (Homo sapiens, UniProt P11712); assay: Inhibition of human CYP2C9; type: ADME
Cytochrome P450 2C9, sequence (P11712 whole entry): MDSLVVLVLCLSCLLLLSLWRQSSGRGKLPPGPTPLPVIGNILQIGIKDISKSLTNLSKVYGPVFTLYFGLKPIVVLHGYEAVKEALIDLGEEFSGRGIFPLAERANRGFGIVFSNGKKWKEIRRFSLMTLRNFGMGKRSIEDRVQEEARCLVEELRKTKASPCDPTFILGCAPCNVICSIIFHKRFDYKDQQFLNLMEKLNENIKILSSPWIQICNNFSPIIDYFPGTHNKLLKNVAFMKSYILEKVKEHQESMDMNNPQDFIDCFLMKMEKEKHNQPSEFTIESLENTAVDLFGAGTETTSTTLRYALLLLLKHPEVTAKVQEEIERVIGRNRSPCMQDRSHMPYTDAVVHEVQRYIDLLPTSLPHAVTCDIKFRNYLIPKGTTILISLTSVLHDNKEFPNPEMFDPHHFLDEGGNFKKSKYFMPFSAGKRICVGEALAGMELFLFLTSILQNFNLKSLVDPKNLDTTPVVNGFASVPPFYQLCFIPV

[5] = target: T1, Prostaglandin D2 receptor 2; assay: Displacement of [3H]PGD2 from human prostaglandin D2 receptor in presence of human serum albumin
Mus musculus [6] = assay: Reduction of ovalbumin-induced increase in sneezes in BALB/c mouse at 10 mg/kg, po once daily for 3 days administered 20 days after ip challenge with ovalbumin followed by intranasal ovalbumin challenge 1 hr post drug dose measured after 8 mins; type: functional, organism-based; design: dose 10 mg/kg
[7] = Cmax in BALB/c mouse at 10 mg/kg, po administered once daily for 3 days measured after 1 hr; type: ADME, organism-based; design: dose 10 mg/kg, route oral; details: in vivo
Mus musculus [8] = assay: Reduction of ovalbumin-induced increase in nasal rubs in BALB/c mouse at 10 mg/kg, po once daily for 3 days administered 20 days after ip challenge with ovalbumin followed by intranasal ovalbumin challenge 1 hr post drug dose measured after 8 mins; type: functional, organism-based; design: dose 10 mg/kg
[9] = Cmin in BALB/c mouse at 10 mg/kg, po administered once daily for 3 days measured after 8 hrs; type: ADME, organism-based; design: dose 10 mg/kg, route oral; details: in vivo, read-out: Cmin

IC50 [1] [µM]	IC50 (Cytochrome P450 3A4 [2]) [µM]	IC50 (Prostacyclin receptor) [µM]	IC50 (Thromboxane A2 receptor) [µM]	Activity (Cytochrome P450 3A4 [3]) [%]	IC50 (Cytochrome P450 2D6) [µM]	IC50 (Blood) [µM]	IC50 [4] [µM]	IC50 (Cytochrome P450 2C9) [µM]	IC50 [5] [µM]	Cmax [7] [nM]	concentration at 8 h [9] [nM]	SMILES	Activity (Mus musculus [6])	Activity (Mus musculus [8])
0.001	> 30	> 100	> 100	30.8	> 30	0.001	2.2	18	0.004			CN([C@@H]1CCC2=C(C1)C1C=CC=CC1N2CC(=O)O)S(=O)(=O)c1ccc(F)cc1 (stereo partly specified)		
		57.9	> 100	58.8	> 30	0.261	7.3	> 30				Cc1c(Cc2ccc3ccccc3n2)c2cc(F)ccc2n1CC(=O)O [TIMAPIPRANT]		
0.311		> 100	0.014		> 30	1.21	33.4	15	0.754			O=C(O)CCn1c2c(c3ccccc31)C[C@H](NS(=O)(=O)c1ccc(F)cc1)CC2 [RAMATROBAN]		
0.096	> 30	> 100	> 100	0.9	> 30	0.14	37.8	15	0.127			CN([C@@H]1CCc2c(c3nccnc3n2CC(=O)O)C1)S(=O)(=O)c1ccc(F)cc1		
0.006	7	> 100	> 100	0.7	> 30	0.007	1	5	0.02			CN([C@@H]1CCc2c(CC(=O)O)c3ccccc3n2C1)S(=O)(=O)c1ccc(F)cc1 [MK-7246]		
0.042		> 100	62.6	0.4	> 30	0.744	25.6	> 30	0.744			CN(C)c1nc(Cc2ccc(NC(=O)c3ccc(C(F)(F)F)cc3)cc2)nc(N(C)C)c1CC(=O)O [BI-671800]		
0.018	> 30	> 100	> 100	0.9	> 30	0.006	4.4	17	0.046			CN([C@@H]1CCc2c(CC(=O)O)c3ccccn3c2C1)S(=O)(=O)c1ccc(F)cc1		
0.094	11	> 100			> 30	0.016	31	10	0.061			CN([C@@H]1CCc2c(c3ccccn3c2CC(=O)O)C1)S(=O)(=O)c1ccc(F)cc1		
0.86	> 30	> 100	> 100	0.4	> 30	0.452	> 100	> 30	0.94			CN([C@@H]1CCc2c(c3ccncc3n2CC(=O)O)C1)S(=O)(=O)c1ccc(F)cc1		
0.006	> 30	> 100	> 100	2.8	> 30	0.001	> 100	> 30	0.011	770	120	CN([C@@H]1CCc2c(c3ncccc3n2CC(=O)O)C1)S(=O)(=O)c1ccc(F)cc1	Active	Active
0.457	> 30	> 100	> 100	2.8	> 30	3.1	9	> 30	1.34			CN([C@@H]1CCc2c(c3cccnc3n2CC(=O)O)C1)S(=O)(=O)c1ccc(F)cc1		
24.9	> 30	> 100	> 100	0.9	> 30	41.6	41.7	> 30	51			CN([C@@H]1CCc2c(CC(=O)O)c3ncccc3n2C1)S(=O)(=O)c1ccc(F)cc1		
